Consider 1 compound from patent publication US8581584B2, “Membrane proteins, mechanisms of action and uses thereof” (priority 2010, dated 2013).

In this assay the target is transmembrane domain of M2 protein (Influenza A virus, UniProt P0DOF5). The assay can be described thus: solid state NMR spectra of uniformly aligned M2 samples with and without drug. The note with it: five isoleucines 15N labeled; FIG. 31.

Molecules are shown by their SMILES.

Chain of transmembrane domain of M2 protein (P0DOF5 26-46): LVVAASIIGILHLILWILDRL
Excerpt: Uniformly aligned samples of membrane proteins meant that each molecule in the sample will have the same orientation with respect to the magnetic field axis of the NMR spectrometer. In this way the orientation dependent spin interactions such as anisotropic chemical shifts, dipolar and quadrupolar interactions can be observed. The orientations of the individual atomic sites in the protein reflect the orientation of that particular site with respect to the magnetic field.

In the case of `NC12CC3CC(CC(C3)C1)C2` [amantadine], the “change of 15N-Ile resonances in response to drug binding” value is given as “two of the resonances shift (arrows) dramatically in response to drug binding”.
